Results published in patent US20140227238A1, “PEPTIDES HAVING PROTECTIVE EFFECT TOWARDS THE INFLAMMATORY ACTIVITY OF PEPTIDE 31-43 OF A-GLIADIN IN CELIAC DISEASE” (CRA-CONSIGLIO PER LA RICERCA E LA, priority 2011, published 2014).
Entries after “also recorded” stand apart in the source; their conditions may differ.

Assays:
K562(S) cells [1] = test: K562(S) cell agglutination test; format: cell-based, human; settings: for (Δ) O.D. (protecting activity): incubated together with p31-43; for protecting activity towards p31-43 induced agglutination of K562 cells: with p31-43
Method: K562(S) cells, an immature subclone of a cell line from a blastic phase chronic myelogenous leukemia patient, are cultured under 5% CO2 atmosphere at 37° C. in RPMI (Gibco, supplied by Invitrogen, Carlsbad, Calif., USA) containing 4.5 g/L glucose, 2 mM L-glutamine, 50 U/ml penicillin, […] streptomycin, 1% essential amino acids, 1% HEPES and 10% bovine fetal serum (FBS).
K562(S) cells to be used for agglutination test have been collected by centrifugation and washed two times with calcium and magnesium free PBS. Then cells have been resuspended at concentration of 10^8 cells/ml in PBS; […] of cell suspension added to each well of a 96 well plate. The peptide has been added at a concentration of 10 μg/ml. The final total volume has been 100 μl. Cell suspension has been incubated at room temp. for 30 minutes. Agglutination rate has been measured using a 96 well plate reader equipped with stirrer. Turbidity of cellular suspension has been measured at 600 nm (OD600 nm) under continuous stirring at 0 and 30 min times. The difference of T0 and T30 readings has been taken as agglutination rate (CV).

ICAM-1 in T84 cells = test: Western blotting for expression of ICAM-1 in T84 cells; format: cell-based, human; settings: 24 hours; for ICAM-1 level in T84 cells: peptide alone, 20 μg/ml, compared to medium only; for ICAM-1 level in T84 cells exposed to p31-43: peptide together with p31-43, 20 μg/ml each
Method: T84 human colonic carcinoma cells have been cultured under 5% CO2 atmosphere at 37° C. in 50% DMEM, (Gibco, supplied by Invitrogen, Carlsbad, Calif., USA) and 50% […] containing 4.5 g/L glucose, 2 mM L-glutamine, 50 U/ml penicillin, […] streptomycin, 1% essential amino acids, 1% HEPES and 10% bovine fetal serum (FBS).
T84 cells have been treated with p31-43 peptide in absence and presence of pRPQ, pDAV, p7mer (at peptide concentration of 20 μg/ml) and culture medium only (like negative control) for 24 hours at 37° C.
For WB analysis, T84 cells have been seeded at a concentration of 1×10^5 cells/ml in 12 well plate and shortly treated before confluence was reached. Treatment has been carried out using 20 μg/ml of medium for each peptide (p31-43, p7mer, pDAV, pRPQ) for 24 hours. In order the protecting activity of pDAV and pRPQ towards toxic effect of p31-43 to be tested, a pre-incubation for 3 hours using these peptides before the exposure to p31-43, has been performed. After incubation, cells have been treated with buffer containing 150 mM NaCl, 0.05% sodium dodecyl sulfate (SDS) and 1% Triton X-100. This mixture then has been centrifuged for 5 minutes at 4° C. Protein concentration has been measured according to […]. SDS-(Polyacryl amide Gel Electrophoresis) has been carried out using 4% and 7.5% gel. […] of protein have been loaded for each gel run. Then the proteins have been transferred on nitrocellulose membrane (Biorad). Membranes have been incubated overnight with mice anti-ICAM-1 monoclonal Abs (Abcam, Cambridge, UK) at 1:250 dilution. Successively, after washings, said membrane have been incubated with secondary antibody (peroxidase HRP:3000; Biorad). Membrane occurring proteins are detected using chemiluminescent detection kit (Biorad), according to producer instructions. Blot intensity of protein bands has been evaluated by Biorad ChemiDoc densitometer.

K562(S) cells [2] = settings: earlier studies (6-9); cited from earlier work
[3] = system: intestinal biopsies from celiac patients; test: Organ culture of celiac duodenal mucosa with gliadin PT digest, immunolocalization of immune activation labels (CD25+, ICAM1, HLA-DR); format: cell-based, human
Method: (§1) Duodenal mucosa samples have been treated in vitro for 3 and 24 hours using medium, gliadin PT digest (500 μg/mL), p31-43 (20 μg/ml), pRPQ (10 μg/ml). P7mer and pTPO (10 μg/ml) have been used in all the experiments as control peptides.
(§2) 4 μm thick sections of frozen biopsy samples from celiac patients have been fixed in acetone for 10 minutes. Then sections have been incubated for 2 hours at room temp. with following antibodies: anti-phospho-tyrosine PY99 mAb (1:80, IgG2b; Saint Cruz Biotechnology, Saint Cruz, Calif.), phospho-p42/p44 (1:500, polyclonal Ig; Cell Technology Beverly, USA), ICAM1 (1:500, Abcam, Cambridge, BUT, USA), HLA-DR (1:500, Abcam, Cambridge, BUT, USA). Antigene expression and distribution thereof within biopsy sample have been visualized by indirect immunofluorescence as previously described. Monoclonal isotype control (IgG1 and IgG2) has been used as control. Samples have been analyzed using Zeiss LSM510 confocal laser scanning unit (Carl Zeiss, Germany).

[4] = system: biopsies from celiac subjects; test: Organ culture of celiac duodenal mucosa with p31-43, immunolocalization of Py99 and phospho-p42/p44; format: cell-based, human
Method: as §1, §2

TG2 = test: In situ determination of TG2 activity in duodenal mucosa from celiac patients; format: cell-based, human; settings: co-incubation with p31-43, biopsies from celiac subjects
Method: as §1
7 μm diameter sections have been collected on slide, pre-incubated with buffer (965 ml of 100 mmol/L Tris-HCl, pH 7.4, […] of 200 mmol/L CaCl2) for 15 minutes, and then pre-incubated with same buffer added with 10 ml of 10 mmol/L of biotinylated mono-dansylcadaverine (bio-MDC) (Molecular Probes, Leiden, The Netherlands) for 1 hour at room temp. The reaction is stopped using 25 mmol/L of EDTA for 5 minutes, then sections have been fixed in 4% paraformaldeide for 10 minutes. Labelled substrate incorporation has been visualized by incubation with streptavidin-conjugated RPE (1:50; Dako) for 30 minutes. Sections have been visualized fluorescently using Axioxop Zeiss 2 Plus micropurpose (Zeiss, Jena, Germany).

[5] = 10 μg/ml, difference of O.D at 600 nm at 0 and 30 minutes ×100, K562(S) cells
[6] = 500 μg/ml gliadin PT digest, 10 μg/ml peptide
[7] = p31-43 20 μg/ml, peptide 10 μg/ml

QQPQDAVQPF (SEQ ID NO: 1) (mutated omega-secalin peptide) [pDAV, decapeptide identified earlier in wheat peptic-triptic digest (WO9727217)]
(Δ) O.D. (protecting activity) (K562(S) cells [1]; [5]): −12 ± 1.9 | protecting activity towards p31-43 induced agglutination of K562 cells (K562(S) cells [1]): prevent p31-43 induced agglutination | ICAM-1 level in T84 cells (ICAM-1 in T84 cells): No meaningful increase | ICAM-1 level in T84 cells exposed to p31-43 (ICAM-1 in T84 cells): ICAM-1 levels similar to cells exposed only to culture medium | prevention of agglutination of K562(S) cells by gliadin peptides (K562(S) cells [2]): suitable to prevent the agglutination of K562(S) cells by gliadin peptides

QQPQGGGQPF (SEQ ID NO: 13) (peptide corresponding to SEQ ID NO4 sequence wherein X is three G) [pGGG]
(Δ) O.D. (protecting activity) (K562(S) cells [1]; [5]): −7.9 ± 1.4 | protecting activity towards p31-43 induced agglutination of K562 cells (K562(S) cells [1]): displayed a protecting activity

QQPQRPQQPF (SEQ ID NO: 2) (peptide corresponding ro omega-secalin from aa 218 to aa 227 codified by the sequence deposited at NCBI with accession number FJ823438) [pRPQ]
(Δ) O.D. (protecting activity) (K562(S) cells [1]; [5]): −9.8 ± 1.7 | protecting activity towards p31-43 induced agglutination of K562 cells (K562(S) cells [1]): prevent p31-43 induced agglutination | ICAM-1 level in T84 cells (ICAM-1 in T84 cells): No meaningful increase | ICAM-1 level in T84 cells exposed to p31-43 (ICAM-1 in T84 cells): ICAM-1 levels similar to cells exposed only to culture medium | gliadin induced increase of HLA-DR expression in mucosa [3, 6]: meaningfully prevents; also recorded: suitable to control | gliadin induced increase of ICAM1 expression in mucosa [3, 6]: meaningfully prevents; also recorded: suitable to control | gliadin induced increase of T CD25+ cells within lamina propria [3, 6]: suitable to control | mucosa immunity stimulating activity ([3]; peptide alone, duodenal biopsies from both celiac and healthy control subjects, data not shown): lacking in mucosa immunity stimulating activity | expression increase of Py99 [4, 7]: meaningfully prevents | p42/44 phosphorylation induced by p31-43 [4, 7]: meaningfully prevents; also recorded: prevents the increase | p31-43-induced TG2 activity (TG2): completely inhibited | p31-43-induced TG2 activity (TG2; listed as RPQ peptide): meaningfully prevents

QQPQQPF (SEQ ID NO: 3) (toxic gliadin peptide from aa 139 to aa 145 of omega-gliadin sequence having accession number AAT74547) [p7mer, 7mer peptide shared by pDAV and pRPQ, known to be toxic in CD, reference compound]
(Δ) O.D. (protecting activity) (K562(S) cells [1]; [5]): 1.5 ± 1.1 | agglutinant activity towards K562 cells (K562(S) cells [1]; peptide alone): displays also agglutinant activity | (Δ) O.D. (agglutinating activity) (K562(S) cells [1]; peptide alone, 10 μg/ml, difference of O.D at 600 nm at 0 and 30 minutes ×100, K562(S) cells): 1.0 ± 0.3 | protecting activity towards p31-43 induced agglutination of K562 cells (K562(S) cells [1]): does not display any protecting effect | ICAM-1 level in T84 cells (ICAM-1 in T84 cells): increases ICAM-1 intracellular levels | ICAM-1 level in T84 cells (ICAM-1 in T84 cells; listed as 7mer): poor increase | ICAM-1 level in T84 cells exposed to p31-43 (ICAM-1 in T84 cells): does not exert any anti-inflammatory effect | ICAM-1 level in T84 cells exposed to p31-43 (ICAM-1 in T84 cells; listed as 7mer): no meaningful decrease

LDPLIRGILLARPAKL QV (SEQ ID NO: 16) (LDPLIRGILLARPAKLQV; control irrilevant peptide) [TPO control peptide, control irrelevant peptide, reference compound]
protecting effect against the activation induced by gliadin ([3]; duodenal biopsies): lacking of any protecting effect | protecting effect against the activation induced by p31-43 ([4]; duodenal biopsies): lacking of any protecting effect

QQPQWQPF (SEQ ID NO: 15) (peptide corresponding to SEQ ID NO4 sequence wherein X is W) [pW]
(Δ) O.D. (protecting activity) (K562(S) cells [1]; [5]): −9.1 ± 2.3

QQPQYYYQPF (SEQ ID NO: 14) (peptide corresponding to SEQ ID No4 sequence wherein X is three Y) [pYYY]
(Δ) O.D. (protecting activity) (K562(S) cells [1]; [5]): −7 ± 2.5 | protecting activity towards p31-43 induced agglutination of K562 cells (K562(S) cells [1]): little higher protecting activity than pGGG
